Experimental data taken from US12162836B2, “N-acyl-{4-[(4-aryl-phenyl)sulfonylmethyl]piperidine} compounds and their therapeutic use” (Modern Biosciences Limited, priority 2019, dated 2024).

Tests used:
CYP2C19 = CYP2C19 (Homo sapiens (Human), UniProt P33261); assay: Human Cytochrome P450 Inhibition Assay (Bactosomes); format: in vitro ADME; details: recombinant Bactosomes, 10 minutes
Experimental: (§1) The ability of test compounds to inhibit five of the most relevant cytochrome P450 enzymes was measured by determination of the activity of cytochrome P450 enzymes in recombinant cytochrome preparations, called Bactosomes (Cypex Ltd, Dundee, Scotland UK DD2 1 NH), in the presence of a specific probe substrate. Bactosomes are a highly efficient and cost-effective source of recombinant CYP450s which have a higher specific activity of enzyme compared to other sources, such as liver microsomes. […] The following CYP450 isoforms were assayed: CYP1A2, CYP2C9, CYP2C19, CYP2D6 and CYP3A4. The study of CYP450 inhibition potential in Bactosomes is accepted as a valuable model permitting rapid prediction of potential drug-drug interactions in vivo (see, e.g., Weaver et al., 2003).
(§2) Bactosomes were obtained from a commercial source (Cypex, Scotland, UK). Test compounds were incubated with Bactosomes at 6 concentrations. Samples were incubated for 10 minutes, after which the reaction was stopped and the samples analysed by LC-MS/MS Multiple Reaction Monitoring (MRM) for the presence/amount of substrate probe.
(§3) CYP450 enzymes (final protein 75 pmol/mL for CYP1A2; 12.5 pmol/mL for CYP2C19; and 25 pmol/mL for CYP2C9, 2D6 and 3A4), 0.1 M phosphate buffer pH 7.4, probe and test compound (final concentration 50, 15.8, 5, 1.58, 0.5 and 0.158 μM; diluted from 10 mM stock solution to give a final DMSO concentration of 1%) were pre-incubated at 37° C. for 5 minutes. The reaction was initiated by the addition of 20 μL of 10 mM NADPH in phosphate buffer. The final incubation volume was 200 μL. The following control inhibitors were used for each CYP450 inhibition assay: CYP1A2: α-naphthoflavone; CYP2C9: sulfaphenazole; CYP2C19: tranylcypromine; CYP2D6: quinidine; CYP3A4: ketoconazole.
(§4) Each compound was incubated for 10 minutes at 37° C. The reactions were stopped by the addition of methanol (final composition 1:1, aqueous: methanol). The incubation plates were shaken, chilled at […] for 2 hours, and centrifuged at 3500 rpm for 15 minutes at 4° C. to precipitate the protein.

CYP1A2 = CYP1A2 (Homo sapiens (Human), UniProt P05177); assay: as above; format: in vitro ADME; details: recombinant enzyme
CYP1A2, sequence (P05177 whole entry): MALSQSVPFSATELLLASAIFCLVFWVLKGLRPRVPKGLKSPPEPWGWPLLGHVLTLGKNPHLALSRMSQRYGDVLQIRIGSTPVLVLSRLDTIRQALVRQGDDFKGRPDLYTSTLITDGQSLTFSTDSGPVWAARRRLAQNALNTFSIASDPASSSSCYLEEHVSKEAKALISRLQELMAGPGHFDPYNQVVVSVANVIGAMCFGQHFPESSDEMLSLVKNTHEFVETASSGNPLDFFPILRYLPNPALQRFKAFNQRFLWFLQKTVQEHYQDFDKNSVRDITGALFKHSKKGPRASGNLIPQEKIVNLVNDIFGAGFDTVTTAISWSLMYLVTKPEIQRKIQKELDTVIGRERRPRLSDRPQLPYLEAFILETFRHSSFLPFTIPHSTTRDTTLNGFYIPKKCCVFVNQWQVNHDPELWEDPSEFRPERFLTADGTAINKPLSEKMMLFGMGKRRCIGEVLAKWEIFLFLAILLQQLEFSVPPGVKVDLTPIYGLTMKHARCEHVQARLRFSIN
Experimental: as §1, §2, §3, §4

CYP2D6 = CYP2D6 (Homo sapiens (Human), UniProt P10635); assay: as above; format: in vitro ADME; details: recombinant Bactosomes, 10 minutes
CYP2D6, sequence (P10635 whole entry): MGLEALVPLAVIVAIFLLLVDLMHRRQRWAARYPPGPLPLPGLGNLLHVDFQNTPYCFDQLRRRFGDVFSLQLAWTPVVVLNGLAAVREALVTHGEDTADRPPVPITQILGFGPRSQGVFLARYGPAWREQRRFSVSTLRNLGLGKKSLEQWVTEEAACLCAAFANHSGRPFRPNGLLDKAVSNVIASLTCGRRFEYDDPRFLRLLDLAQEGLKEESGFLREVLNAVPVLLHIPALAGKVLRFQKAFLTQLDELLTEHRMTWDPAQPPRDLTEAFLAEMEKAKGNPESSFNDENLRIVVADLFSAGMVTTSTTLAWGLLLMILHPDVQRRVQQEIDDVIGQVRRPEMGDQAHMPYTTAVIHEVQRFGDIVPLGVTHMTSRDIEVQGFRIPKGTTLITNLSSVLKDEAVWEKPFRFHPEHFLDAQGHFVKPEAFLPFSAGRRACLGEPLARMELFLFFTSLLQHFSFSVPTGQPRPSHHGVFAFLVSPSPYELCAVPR
Experimental: as §1, §2, §3, §4

CYP2C9 = CYP2C9 (Homo sapiens (Human), UniProt P11712); assay: as above; format: in vitro ADME; details: recombinant Bactosomes, 10 minutes
CYP2C9, sequence (P11712 whole entry): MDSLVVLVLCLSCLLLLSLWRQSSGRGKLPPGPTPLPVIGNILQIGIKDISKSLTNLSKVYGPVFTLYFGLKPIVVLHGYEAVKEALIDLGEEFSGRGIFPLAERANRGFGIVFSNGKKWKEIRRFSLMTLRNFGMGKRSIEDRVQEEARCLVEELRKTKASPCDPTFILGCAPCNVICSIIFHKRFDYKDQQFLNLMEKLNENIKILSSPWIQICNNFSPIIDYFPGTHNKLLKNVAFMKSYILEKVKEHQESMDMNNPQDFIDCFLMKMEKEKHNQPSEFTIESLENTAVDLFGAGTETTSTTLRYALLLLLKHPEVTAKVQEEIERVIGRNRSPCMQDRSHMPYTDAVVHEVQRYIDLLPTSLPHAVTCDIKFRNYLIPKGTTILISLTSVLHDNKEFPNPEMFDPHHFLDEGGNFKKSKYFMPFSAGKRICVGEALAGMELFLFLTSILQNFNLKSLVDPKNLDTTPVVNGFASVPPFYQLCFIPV
Experimental: as §1, §2, §3, §4

CYP3A4 = CYP3A4 (Homo sapiens (Human), UniProt P08684); assay: as above; format: in vitro ADME; details: recombinant Bactosomes, 10 minutes
CYP3A4, sequence (P08684 whole entry): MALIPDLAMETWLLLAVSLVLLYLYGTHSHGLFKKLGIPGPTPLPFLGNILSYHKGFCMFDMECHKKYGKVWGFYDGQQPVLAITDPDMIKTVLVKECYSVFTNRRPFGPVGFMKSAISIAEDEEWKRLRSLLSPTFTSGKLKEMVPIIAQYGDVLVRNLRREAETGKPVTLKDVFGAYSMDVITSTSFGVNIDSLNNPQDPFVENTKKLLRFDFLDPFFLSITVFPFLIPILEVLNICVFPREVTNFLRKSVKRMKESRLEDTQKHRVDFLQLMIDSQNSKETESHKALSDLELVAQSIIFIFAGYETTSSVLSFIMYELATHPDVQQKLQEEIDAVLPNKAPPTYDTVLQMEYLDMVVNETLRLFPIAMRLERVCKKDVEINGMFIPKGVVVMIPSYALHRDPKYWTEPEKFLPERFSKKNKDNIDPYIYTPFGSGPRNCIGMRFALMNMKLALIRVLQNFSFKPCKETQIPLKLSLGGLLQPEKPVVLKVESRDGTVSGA
Experimental: as §1, §2, §3, §4

[1] = Rodent Pharmacokinetics Studies; format: in vivo, rat; details: male Han Wistar rats; for i.v. AUC: 0.25 mg/kg intravenous; for Bioavail, F: oral vs intravenous; for half-life: rat, plasma
Source text: Absorption and metabolic stability were studied using an in vivo pharmacokinetics assay.
[…] Test compounds were formulated in 0.5% carboxymethylcellulose (CMC)/0.1% Tween-80 for administration via the oral route, or in 5% DMSO/10% solutol in saline for administration via the intravenous route. For compound HMC-C-01-A the oral administration was formulated in 2% dimethylacetamide/20% hydroxypropyl-β-cyclodextrin in water. Animals were given free access to food throughout the study except for fasting overnight and until 2 hours post dose on the day of dosing.
Blood samples were taken from the retro-orbital plexus at the following time points and placed in microtubes containing 20% K2EDTA solution:
Oral Dosing: predose; 0.25, 0.5, 1, 2, 4, 6, 8, 12 and 24 hours post dose.
Blood samples were centrifuged to obtain plasma, which was transferred to a separate container and frozen at −20° C.
For analysis, samples were thawed at room temperature and prepared by protein precipitation with acetonitrile spiked with internal standard (500 ng/mL glipizide) in the ratio 1:4 with plasma.
The pharmacokinetic parameters for the test compounds were calculated by Phoenix WinNonlin version 8.0 (Certara, CA) using standard non-compartmental methods. Peak plasma concentrations (Cmax) and time of the peak plasma concentration (Tmax) were the observed values. The area under the plasma concentration-time curve (AUC) was determined by use of the linear trapezoidal rule up to the last measurable concentration (AUClast) and thereafter by extrapolation of the terminal elimination phase to infinity (AUCinf). The elimination phase half-life (t1/2) was calculated as 0.693/kel.

human hepatocytes = assay: Human Hepatocyte Stability; format: in vitro ADME; details: for metabolic stability (in words): human hepatocytes
Experimental: (§5) Metabolic stability of test compounds was measured by determination of the rate of disappearance of the compound when incubated in the presence of human hepatocytes, a primary source of the most important enzymes (cytochrome P450s) involved in drug metabolism. Study of drug stability in the presence of primary hepatocytes is accepted as a valuable model permitting rapid prediction of in vivo drug stability.
(§6) Human hepatocytes were obtained from a commercial source and viability was assessed using a trypan blue solution prior to use. Test compounds (final concentration 1 μM, 0.1 DMSO, 0.9% acetonitrile) or a marker (diclofenac or diltiazem, final assay concentration 1 μM, 0.1% DMSO, 0.9% acetonitrile) were incubated with pooled hepatocytes for a 60 minute period and samples removed at up to 6 time points and analysed by LC-MS/MS for the presence/amount of test compounds.
(§7) Each compound was incubated for 0, 5, 15, 30, 45, or 60 minutes. The reactions were stopped by the addition of methanol containing an internal standard (1 μM Tolbutamide) at the appropriate time points, mixed and placed at −20° C. for 1 hour to quench and allow protein to precipitate. All samples were centrifuged (2500× g, 20 minutes, 4° C.). The aliquots were analysed using LC-MS/MS. Reactions were performed in duplicate at 37° C.
(§8) Data were processed, and the results plotted as In(concentration) vs. time. The elimination rate constant (slope of the regression line, k) was calculated using the following formula, where C(t) is the concentration at time t and C(0) is the starting concentration:
(§9) The half-life (t1/2) was calculated using the following formula: […]
(§10) The intrinsic clearance (Clint) was calculated using the following formula, where [cell] is the hepatocyte concentration in the assay: […]

[2] = Human Hepatocyte Stability; format: in vitro ADME; details: pooled human hepatocytes, 1 μM, 60 minute incubation; for half-life at 1 μM: read-out: Human t1/2
Experimental: as §5, §6, §7, §8, §9, §10

[3] = system: CYP1A2, CYP2C9, CYP2C19, CYP2D6 and CYP3A4; format: in vitro ADME, human
Experimental: as §1
as §2, with “probe. […]” for “probe.”

[4] = pooled human hepatocytes, 1 μM, 60 minute incubation

CYP2C19, sequence (P33261 whole entry, canonical isoform): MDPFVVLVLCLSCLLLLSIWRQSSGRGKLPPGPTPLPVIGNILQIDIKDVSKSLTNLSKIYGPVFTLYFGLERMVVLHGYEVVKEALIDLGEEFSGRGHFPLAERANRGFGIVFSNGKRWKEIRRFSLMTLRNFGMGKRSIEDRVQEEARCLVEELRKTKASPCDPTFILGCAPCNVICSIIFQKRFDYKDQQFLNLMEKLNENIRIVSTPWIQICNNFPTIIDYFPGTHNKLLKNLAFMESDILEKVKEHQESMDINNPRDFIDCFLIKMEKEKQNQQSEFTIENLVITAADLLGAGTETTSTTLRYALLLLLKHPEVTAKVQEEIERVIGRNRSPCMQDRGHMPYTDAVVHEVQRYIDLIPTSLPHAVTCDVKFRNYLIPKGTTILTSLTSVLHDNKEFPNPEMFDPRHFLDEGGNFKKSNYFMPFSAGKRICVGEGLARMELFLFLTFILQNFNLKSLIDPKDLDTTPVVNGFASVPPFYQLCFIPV

Row | SMILES | IC50 (CYP2C19) | IC50 (CYP1A2) | IC50 (CYP2D6) | IC50 (CYP2C9) | IC50 (CYP3A4) | T1/2 [1] | i.v. AUC [1] | p.o. AUC ([1]; dosed at 5 mg/kg orally) | Bioavail, F [1] | Human Clint (human hepatocytes; [4]) | Human t1/2 (human hepatocytes; [4]) | IC50 (CYP1A2; human, 10 min, pH 7.4) | p.o. AUC ([1]; 1.25 mg/kg orally) | half-life [1] | hepatocyte CLint at 1 μM [2] | half-life at 1 μM [2] | metabolic stability (in words) (human hepatocytes) | drug-drug interaction liability, CYP450 inhibition profile (in words) [3]
1 | CC1(O)CCC(NS(=O)(=O)c2ccc(-c3ccc(F)cc3F)cc2)CC1 (stereo not drawn) [ABD899, reference compound] | 7.3 µM | > 25 µM | 45.3 µM | 3.9 µM | 21.6 µM | 10.8 h | 2133 ng/mL/min | 10740 ^(4) ng/mL/min | 50% | 9 uL/min/million cells | 2.48 h |  |  |  |  |  |  | 
2 | CC(=O)N1CCC(CS(=O)(=O)c2ccc(-c3ccc(F)cc3F)cc2)CC1 [NASMP-01, 1-(4-(((2′,4′-Difluoro-[1,1′-biphenyl]-4-yl)sulfonyl)methyl)piperidin-1-yl)ethan-1-one] | > 50 µM |  | > 50 µM | > 50 µM | > 50 µM |  | 816 ng/mL/min |  | 56% |  |  | > 50 µM | 2299 ng/mL/min | 6.6 h | < 3 µL/min/1e6 cells | > 7.67 h | exceptionally good stability | particularly good profile
3 | CC(=O)N1CCC(CS(=O)(=O)c2ccc(-c3ccc(C#N)cc3Cl)cc2)CC1 [NASMP-05, 4′-(((1-Acetylpiperidin-4-yl)methyl)sulfonyl)-2-chloro-[1,1′-biphenyl]-4-carbonitrile] | > 50 µM |  | > 50 µM | > 50 µM | > 50 µM |  |  |  |  |  |  | > 50 µM |  |  |  |  | exceptionally good stability | particularly good profile
4 | CC(=O)N1CCC(CS(=O)(=O)c2ccc(-c3ccc(Cl)cc3C#N)cc2)CC1 [NASMP-06, 4′-(((1-Acetylpiperidin-4-yl)methyl)sulfonyl)-4-chloro-[1,1′-biphenyl]-2-carbonitrile] | > 50 µM |  | > 50 µM | 42.7 µM | > 50 µM |  | 349 ng/mL/min |  | 24% |  |  | > 50 µM | 3030 ng/mL/min | 3.3 h |  | > 1 h | exceptionally good stability | 
5 | CC(=O)N1CCC(CS(=O)(=O)c2ccc(-c3ccc(C(F)(F)F)cc3F)cc2)CC1 [NASMP-07, 1-(4-(((2′-Fluoro-4′-(trifluoromethyl)-[1,1′-biphenyl]-4-yl)sulfonyl)methyl)piperidin-1-yl)ethan-1-one] | 36.4 µM |  | > 50 µM | 19.6 µM | > 50 µM |  |  |  |  |  |  | > 50 µM |  |  | 1.1 µL/min/1e6 cells | > 1 h |  | 
6 | CC(=O)N1CCC(CS(=O)(=O)c2ccc(-c3c(F)cccc3F)cc2)CC1 [NASMP-09, 1-(4-(((2′,6′-Difluoro-[1,1′-biphenyl]-4-yl)sulfonyl)methyl)piperidin-1-yl)ethan-1-one] | 17.8 µM |  | > 50 µM | > 50 µM | 44.5 µM |  |  |  |  |  |  | > 50 µM |  |  | < 3.4 µL/min/1e6 cells | > 6.88 h | exceptionally good stability | 
7 | CC(=O)N1CCC(CS(=O)(=O)c2ccc(-c3ccc(F)cc3F)cc2C(F)(F)F)CC1 [NASMP-12, 1-(4-(((2′,4′-Difluoro-3-(trifluoromethyl)-[1,1′-biphenyl]-4-yl)sulfonyl)methyl)piperidin-1-yl)ethan-1-one] | > 50 µM |  | 45.4 µM | 15.4 µM | > 50 µM |  | 581 ng/mL/min |  | >69% |  |  | > 50 µM | 3160 ng/mL/min | 5.1 h |  |  | exceptionally good stability | 
8 | CCC(=O)N1CCC(CS(=O)(=O)c2ccc(-c3ccc(F)cc3F)cc2)CC1 [NASMP-15, 1-(4-(((2′,4′-Difluoro-[1,1′-biphenyl]-4-yl)sulfonyl)methyl)piperidin-1-yl)propan-1-one] | > 50 µM |  | > 50 µM | 21.5 µM | > 50 µM |  | 282 ng/mL/min |  | >62% |  |  | > 50 µM | 1750 ng/mL/min | 4.9 h |  | > 1 h | exceptionally good stability | 
